# Where a name gives a salt, the structure may show the parent alone.
# Molecular target: T1, human cloned 5-HT6 receptors (Homo sapiens, UniProt P50406)
# T1 construct: expressed in transfected cells; host or cells: HeLa cells
# Experiment: 5-HT6 binding affinity, [3H]-LSD displacement
# Conditions: membranes of Hela cells expressing human cloned 5-HT6 receptors; [3H]-LSD 3.0 nM; 120 minutes at room temperature
# Procedure: The affinity of test compounds for the serotonin 5-HT6 receptor was evaluated in the following manner. Cultured Hela cells expressing human cloned 5-HT6 receptors were harvested and centrifuged at low speed (1,000×g) for 10.0 minutes to remove the culture media. The harvested cells were suspended in half volume of fresh physiological phosphate buffered saline solution and recentrifuged at the same speed. This operation was repeated. The collected cells were then homogenized in ten volumes of 50 mM Tris.HCl (pH 7.4) and 0.5 mM EDTA. The homogenate was centrifuged at 40,000×g for 30.0 min and the precipitate was collected. The obtained pellet was resuspended in 10 volumes of Tris.HCl buffer and recentrifuged at the same speed. The final pellet was suspended in a small volume of Tris.HCl buffer and the tissue protein content was determined in aliquots of 10-25 μl volumes. […] The volume of the suspended cell membranes was adjusted to give a tissue protein concentration of 1.0 mg/ml of suspension. The prepared membrane suspension (10 times concentrated) was aliquoted in 1.0 ml volumes and stored at −70° C. until used in subsequent binding experiments.
# The bound complex caught on the filter disk was allowed to air dry and the radioactivity is measured in a Packard TopCount® equipped with six photomultiplier detectors, after the addition of 40.0 μl Microscint®-20 scintillant to each shallow well. The unifilter plate was heat-sealed and counted in a PackardTopCount® with a tritium efficiency of 31.0%.
# Specific binding to the 5-HT6 receptor was defined as the total radioactivity bound less the amount bound in the presence of 10.0 μM unlabeled methiothepin. Binding in the presence of varying concentrations of test compound was expressed as a percentage of specific binding in the absence of test compound. The results were plotted as log % bound versus log concentration of test compound. […] A linear regression line of data points was plotted, from which the IC50 value is determined and the Ki value is determined based upon the following equation: Ki=IC50/(1+L/KD) where L was the concentration of the radioactive ligand used and KD is the dissociation constant of the ligand for the receptor, both expressed in nM.
# T1 sequence (P50406 whole entry): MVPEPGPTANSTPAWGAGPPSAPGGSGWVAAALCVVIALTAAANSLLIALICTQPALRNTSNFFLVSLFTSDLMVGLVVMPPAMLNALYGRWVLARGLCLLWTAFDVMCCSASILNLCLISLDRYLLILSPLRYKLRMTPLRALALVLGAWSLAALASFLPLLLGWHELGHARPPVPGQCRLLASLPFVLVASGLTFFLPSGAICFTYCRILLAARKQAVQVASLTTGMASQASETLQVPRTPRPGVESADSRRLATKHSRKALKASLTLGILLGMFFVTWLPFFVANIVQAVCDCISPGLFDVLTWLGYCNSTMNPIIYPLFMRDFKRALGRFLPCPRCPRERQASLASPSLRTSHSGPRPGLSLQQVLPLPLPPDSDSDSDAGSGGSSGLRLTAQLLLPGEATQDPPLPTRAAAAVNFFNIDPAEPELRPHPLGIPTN
row,SMILES,Ki
1,CCNCCOc1cccc2c(S(=O)(=O)c3ccccc3)nn(Cc3cccc(Cl)c3)c12 [Example 83],26 to 35 nM
2,CCN(CC)CCOc1cccc2c(S(=O)(=O)c3ccccc3)nn(Cc3cccc(Cl)c3)c12 [Example 84],> 45 nM
3,CCCCNCCOc1cccc2c(S(=O)(=O)c3ccccc3)nn(Cc3cccc(Cl)c3)c12 [Example 85],> 45 nM
4,O=S(=O)(c1ccccc1)c1nn(Cc2cccc(Cl)c2)c2c(OCCN3CCCC3)cccc12 [Example 86],26 to 35 nM
5,O=S(=O)(c1ccccc1)c1nn(Cc2cccc(Cl)c2)c2c(OCCN3CCCCC3)cccc12 [Example 87],> 45 nM
6,CNCCOc1cccc2c(S(=O)(=O)c3ccccc3)n[nH]c12 [Example 88],0.01 to 10 nM
7,CCNCCOc1cccc2c(S(=O)(=O)c3ccccc3)n[nH]c12 [Example 89],0.01 to 10 nM
8,CCN(CC)CCOc1cccc2c(S(=O)(=O)c3ccccc3)n[nH]c12 [Example 90],0.01 to 10 nM
9,CCCCNCCOc1cccc2c(S(=O)(=O)c3ccccc3)n[nH]c12 [Example 91],0.01 to 10 nM
10,O=S(=O)(c1ccccc1)c1n[nH]c2c(OCCN3CCCC3)cccc12 [Example 92],0.01 to 10 nM
11,O=S(=O)(c1ccccc1)c1n[nH]c2c(OCCN3CCCCC3)cccc12 [Example 93],0.01 to 10 nM
12,CCNCCOc1cccc2c(S(=O)(=O)c3cccc4ccccc34)nn(C)c12 [Example 95],0.01 to 10 nM
13,CN(C)CCOc1cccc2c(S(=O)(=O)c3cccc4ccccc34)nn(C)c12 [Example 96],> 45 nM
14,CCN(CC)CCOc1cccc2c(S(=O)(=O)c3cccc4ccccc34)nn(C)c12 [Example 97],0.01 to 10 nM
15,CCCCNCCOc1cccc2c(S(=O)(=O)c3cccc4ccccc34)nn(C)c12 [Example 98],26 to 35 nM
16,Cn1nc(S(=O)(=O)c2cccc3ccccc23)c2cccc(OCCN3CCCCC3)c21 [Example 99],0.01 to 10 nM
17,Cn1nc(S(=O)(=O)c2cccc3ccccc23)c2cccc(OCCN3CCCC3)c21 [Example 100],11 to 25 nM
18,CNCCOc1cccc2c(S(=O)(=O)c3ccccc3)nn(C)c12 [Example 101],11 to 25 nM
19,CCNCCOc1cccc2c(S(=O)(=O)c3ccccc3)nn(C)c12 [Example 102],26 to 35 nM

row,SMILES,Ki
1,CCN(CC)CCOc1cccc2c(S(=O)(=O)c3ccccc3)nn(C)c12 [Example 103],> 45 nM
2,Cn1nc(S(=O)(=O)c2ccccc2)c2cccc(OCCN3CCCC3)c21 [Example 104],26 to 35 nM
3,Cn1nc(S(=O)(=O)c2ccccc2)c2cccc(OCCN3CCCCC3)c21 [Example 105],> 45 nM
4,"NCCOc1cc(F)cc2c(S(=O)(=O)c3cccc4ccccc34)nn(Cc3cccc(Cl)c3)c12 [Example 106, (2-{[1-(3-Chlorobenzyl)-5-fluoro-3-(1-naphthylsulfonyl)-1H-indazol-7-yl]oxy}ethyl)amine]",> 45 nM
5,"CNCCOc1cc(F)cc2c(S(=O)(=O)c3cccc4ccccc34)nn(Cc3cccc(Cl)c3)c12 [Example 107, (2-{[1-(3-chlorobenzyl)-5-fluoro-3-(1-naphthylsulfonyl)-1H-indazol-7-yl]oxy}ethyl)methylamine Hydrochloride]",> 45 nM
6,CCNCCOc1cc(F)cc2c(S(=O)(=O)c3cccc4ccccc34)nn(Cc3cccc(Cl)c3)c12 [Example 108],> 45 nM
7,CN(C)CCOc1cc(F)cc2c(S(=O)(=O)c3cccc4ccccc34)nn(Cc3cccc(Cl)c3)c12 [Example 109],11 to 25 nM
8,CCN(CC)CCOc1cc(F)cc2c(S(=O)(=O)c3cccc4ccccc34)nn(Cc3cccc(Cl)c3)c12 [Example 110],> 45 nM
9,O=S(=O)(c1cccc2ccccc12)c1nn(Cc2cccc(Cl)c2)c2c(OCCN3CCCCC3)cc(F)cc12 [Example 111],> 45 nM
10,O=S(=O)(c1cccc2ccccc12)c1nn(Cc2cccc(Cl)c2)c2c(OCCN3CCCC3)cc(F)cc12 [Example 112],> 45 nM
11,CNCCOc1cc(F)cc2c(S(=O)(=O)c3cccc4ccccc34)n[nH]c12 [Example 113],0.01 to 10 nM
12,CCNCCOc1cc(F)cc2c(S(=O)(=O)c3cccc4ccccc34)n[nH]c12 [Example 114],0.01 to 10 nM
13,CN(C)CCOc1cc(F)cc2c(S(=O)(=O)c3cccc4ccccc34)n[nH]c12 [Example 115],11 to 25 nM
14,CCN(CC)CCOc1cc(F)cc2c(S(=O)(=O)c3cccc4ccccc34)n[nH]c12 [Example 116],11 to 25 nM
15,O=S(=O)(c1cccc2ccccc12)c1n[nH]c2c(OCCN3CCCCC3)cc(F)cc12 [Example 117],0.01 to 10 nM
16,O=S(=O)(c1cccc2ccccc12)c1n[nH]c2c(OCCN3CCCC3)cc(F)cc12 [Example 118],0.01 to 10 nM
17,CNCCOc1cc(OC)cc2c(S(=O)(=O)c3cccc4ccccc34)nn(Cc3cccc(Cl)c3)c12 [Example 119],> 45 nM
18,CCNCCOc1cc(OC)cc2c(S(=O)(=O)c3cccc4ccccc34)nn(Cc3cccc(Cl)c3)c12 [Example 120],> 45 nM
19,COc1cc(OCCN(C)C)c2c(c1)c(S(=O)(=O)c1cccc3ccccc13)nn2Cc1cccc(Cl)c1 [Example 121],> 45 nM

row,SMILES,Ki
1,COc1cc(OCCN2CCCCC2)c2c(c1)c(S(=O)(=O)c1cccc3ccccc13)nn2Cc1cccc(Cl)c1 [Example 122],0.01 to 10 nM
2,COc1cc(OCCN2CCCC2)c2c(c1)c(S(=O)(=O)c1cccc3ccccc13)nn2Cc1cccc(Cl)c1 [Example 123],> 45 nM
3,CNCCOc1cc(OC)cc2c(S(=O)(=O)c3cccc4ccccc34)n[nH]c12 [Example 124],11 to 25 nM
4,COc1cc(OCCN(C)C)c2[nH]nc(S(=O)(=O)c3cccc4ccccc34)c2c1 [Example 125],11 to 25 nM
5,COc1cc(OCCN2CCCCC2)c2[nH]nc(S(=O)(=O)c3cccc4ccccc34)c2c1 [Example 126],0.01 to 10 nM
6,COc1cc(OCCN2CCCC2)c2[nH]nc(S(=O)(=O)c3cccc4ccccc34)c2c1 [Example 127],11 to 25 nM
7,CNCCCOc1cccc2c(S(=O)(=O)c3cccc4ccccc34)nn(Cc3cccc(Cl)c3)c12 [Example 128],> 45 nM
8,CCNCCCOc1cccc2c(S(=O)(=O)c3cccc4ccccc34)nn(Cc3cccc(Cl)c3)c12 [Example 129],> 45 nM
9,CN(C)CCCOc1cccc2c(S(=O)(=O)c3cccc4ccccc34)nn(Cc3cccc(Cl)c3)c12 [Example 130],> 45 nM
10,CCN(CC)CCCOc1cccc2c(S(=O)(=O)c3cccc4ccccc34)nn(Cc3cccc(Cl)c3)c12 [Example 131],11 to 25 nM
11,O=S(=O)(c1cccc2ccccc12)c1nn(Cc2cccc(Cl)c2)c2c(OCCCN3CCCCC3)cccc12 [Example 132],26 to 35 nM
12,O=S(=O)(c1cccc2ccccc12)c1nn(Cc2cccc(Cl)c2)c2c(OCCCN3CCCC3)cccc12 [Example 133],11 to 25 nM
13,CNCCCOc1cccc2c(S(=O)(=O)c3cccc4ccccc34)n[nH]c12 [Example 134],11 to 25 nM
14,CCNCCCOc1cccc2c(S(=O)(=O)c3cccc4ccccc34)n[nH]c12 [Example 135],36 to 45 nM
15,CN(C)CCCOc1cccc2c(S(=O)(=O)c3cccc4ccccc34)n[nH]c12 [Example 136],36 to 45 nM
16,CCN(CC)CCCOc1cccc2c(S(=O)(=O)c3cccc4ccccc34)n[nH]c12 [Example 137],26 to 35 nM
17,O=S(=O)(c1cccc2ccccc12)c1n[nH]c2c(OCCCN3CCCCC3)cccc12 [Example 138],36 to 45 nM
18,NCCOc1cccc2c(S(=O)(=O)c3ccccc3)n[nH]c12 [Example 139],0.01 to 10 nM
19,NCCOc1cc(F)cc2c(S(=O)(=O)c3ccccc3)n[nH]c12 [Example 140],0.01 to 10 nM

# — patent publication US7723329B2, “Substituted-3-sulfonylindazole derivatives as 5-hydroxytryptamine-6 ligands” (Wyeth LLC, priority 2005, dated 2010)
